These results are taken from US9227971B2, “Pyrazolo[1,5-a]pyrimidine compounds as mTOR inhibitors” (Merck Sharp & Dohme Corp., priority 2010, dated 2016).

Read-outs that look alike come from different tables or passages of the source.

Test [1] concerns phosphorylated 4E-BP1 Thr37/46 (p4E-BP1 Thr37/46), mTORC1 activity, PC3 cells. The experiment in a line: mTOR target engagement assay, immunofluorescent cell-based, p4E-BP1 Thr37/46 readout (mTORC1 activity). Particulars: read-out: p4E-BP1 Thr37/46 IC50. Here is the method:
The target engagement of mTOR kinase inhibitors was evaluated using an immunofluorescent cell-based assay. In this assay, inhibition of mTORC1 activity was measured by the reduction in the level of phosphorylated 4E-BP1^[…] (p4E-BP1 Thr37/46), and inhibition of mTORC2 activity was measured by the reduction of phosphorylated AKT^Ser473 (pAKT S473).
PC3 cells (prostate tumor cell-line that contains a mutation in the tumor suppressor PTEN, that promotes the phosphorylation and activation of AKT and 4E-BP1) were used in the immunofluorescence assay. PC3 cells were seeded on 384 well plates (black clear bottom, Matrix #4332) overnight. PC3 cells were then treated with 40 μl of the serially diluted test compounds (in 5% fetal bovine serum, F12 medium containing 0.25% DMSO) for ninety minutes at 37° C. The test compound solution was removed, and the plates were washed gently two times with 25 μl phosphate buffered saline (PBS). The cells were fixed by adding 25 μl of Prefer reagent (from Anatech LTD, Cat#414, a glyoxal fixative for fixing proteins within a cell) for sixty minutes followed by three washes with PBS. 5% Goat serum in PBS/0.3% Triton was used to block non-specific binding (60 minutes).
The primary antibodies targeting pAKT S473 and p4E-BP1 Thr37/46 were diluted into PBS/0.3% Triton and incubated with the cells overnight at 4° C. The antibodies targeting pAKTS473 (Cat#4085, Cell signaling) and p4E-BP1 Thr37/46 (Cat#2855, Cell signaling) were used at a 1:100 dilution. Plates were washed three times with PBS/0.1% Tween 20 before adding the secondary antibody at a 1:200 dilution. (goat anti-rabbit containing a fluorescent label, Alexa Fluor 488, Cat#A11008, Invitrogen) in PBS/0.3% Triton for 60 minutes.
Finally, the plates were washed three times with PBS/0.1% Tween 20 and the fluorescent intensity was read using an Analyst HT from Molecular Devices. The fluorescent intensity values from the serially diluted compound treatment group were analyzed using the Xlfit 4 program ([…]) (Formula 205: Y=Bottom+(Top-Bottom)/(1+(IC50/X)^Hillslope) to generate the IC50 value. Where Top is the maximum signal without Compound (+DMSO only) and Bottom represents maximum inhibition. Y is the fluorescence at some compound concentration. The control used to determine the fluorescent intensities for 100% pAKT S473 or 100% phosphorylated p4E-BP1 Thr37/46 were measured from untreated wells that contained only DMSO, instead of test compound.

In test [2] the test system is phosphorylated AKT Ser473 (pAKT S473), mTORC2 activity, PC3 cells. Put plainly: mTOR target engagement assay, immunofluorescent cell-based, pAKT S473 readout (mTORC2 activity). In a few lines:
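After blocking, cells were stained overnight at 4 °C with anti-pAKT S473 antibody, then a fluorescent secondary; inhibition was read as reduced fluorescence intensity.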

[3] abbreviates: Homo sapiens, PC-3, Table 3-1, PC3 cells.
The mark [4] stands for this setting: Homo sapiens, PC-3, PC3 cells, compound treatment ninety minutes at 37° C.
[5] abbreviates: Homo sapiens, PC-3, Table 7-4, PC3 cells.

Regarding `COc1cc(F)c(-c2ccc(-c3cnn4c(N)c(S(C)(=O)=O)c([C@@H]5C[C@H]6CC[C@@H](C5)N6C(=O)c5nnc[nH]5)nc34)cn2)cc1F` [Compound 3.59, ((1R,3s,5S)-3-(7-amino-3-(6-(2,5-difluoro-4-methoxyphenyl)pyridin-3-yl)-6-(methylsulfonyl)pyrazolo[1,5-a]pyrimidin-5-yl)-8-azabicyclo[3.2.1]octan-8-yl)(4H-1,2,4-triazol-3-yl)methanone], the IC50 in test [1] (setting [3]) and in test [2] (setting [3]) was 1 to 100 nM in each case.
For the compound `CC(=O)c1c([C@@H]2C[C@H]3CC[C@@H](C2)N3C(=O)c2nnc[nH]2)nc2c(-c3ccc(-c4cnn(C)c4)nc3)cnn2c1N` [Compound 1.1.149, 1-(5-((1R,3s,5S)-8-(4H-1,2,4-triazole-3-carbonyl)-8-azabicyclo[3.2.1]octan-3-yl)-7-amino-3-(6-(1-methyl-1H-pyrazol-4-yl)pyridin-3-yl)pyrazolo[1,5-a]pyrimidin-6-yl)ethanone], the IC50 in test [1] (setting [4]) and in test [2] (setting [4]) was 1 to 100 nM in each case.
Regarding `CC(=O)c1c([C@@H]2C[C@H]3CC[C@@H](C2)N3C(=O)c2ccn[nH]2)nc2c(-c3ccc(-c4ccn(C)n4)nc3)cnn2c1N` [Compound 1.1.121, 1-(5-((1R,3s,5S)-8-(1H-pyrazole-5-carbonyl)-8-azabicyclo[3.2.1]octan-3-yl)-7-amino-3-(6-(1-methyl-1H-pyrazol-3-yl)pyridin-3-yl)pyrazolo[1,5-a]pyrimidin-6-yl)ethanone], the IC50 in test [1] (setting [4]) lay in the range of 100 to 1000 nM; in test [2] (setting [4]), 1 to 100 nM.
Take `CS(=O)(=O)c1c([C@@H]2C[C@H]3CC[C@@H](C2)N3C(=O)c2nnc[nH]2)nc2c(-c3ccc(-c4ccc(F)cc4F)nc3)cnn2c1N` [Compound 3.108, ((1R,3s,5S)-3-(7-amino-3-(6-(2,4-difluorophenyl)pyridin-3-yl)-6-(methylsulfonyl)pyrazolo[1,5-a]pyrimidin-5-yl)-8-azabicyclo[3.2.1]octan-8-yl)(4H-1,2,4-triazol-3-yl)methanone]: the IC50 in test [1] (setting [3]) and in test [2] (setting [3]) was 1 to 100 nM each time.
Take `CS(=O)(=O)c1c([C@H]2CC3CC[C@H](C2)N3C(=O)c2cnn[nH]2)nc2c(-c3ccc(-c4c(F)cccc4F)nc3)cnn2c1N` [Compound 3.173, ((1R,3s,5S)-3-(7-amino-3-(6-(2,6-difluorophenyl)pyridin-3-yl)-6-(methylsulfonyl)pyrazolo[1,5-a]pyrimidin-5-yl)-8-azabicyclo[3.2.1]octan-8-yl)(1H-1,2,3-triazol-5-yl)methanone]: the IC50 in test [1] (setting [3]) and in test [2] (setting [3]) was 100 to 1000 nM in each case.
Regarding `CC(=O)c1c([C@@H]2C[C@H]3CC[C@@H](C2)N3C(=O)c2nnc[nH]2)nc2c(-c3ccc(-c4cc(F)cc(F)c4)nc3)cnn2c1N` [Compound 1.1.100, 1-(5-((1R,3r,5S)-8-(4H-1,2,4-triazole-3-carbonyl)-8-azabicyclo[3.2.1]octan-3-yl)-7-amino-3-(6-(3,5-difluorophenyl)pyridin-3-yl)pyrazolo[1,5-a]pyrimidin-6-yl)ethanone], the IC50 in test [1] (setting [4]) and in test [2] (setting [4]) was 100 to 1000 nM each time.
Take `Cn1nnc(-c2ccc(-c3cnn4c(N)c(S(C)(=O)=O)c([C@@H]5C[C@H]6CC[C@@H](C5)N6C(=O)CO)nc34)cn2)n1` [Compound 3.43, 1-((1R,3a,5S)-3-(7-amino-3-(6-(2-methyl-2H-tetrazol-5-yl)pyridin-3-yl)-6-(methylsulfonyl)pyrazolo[1,5-a]pyrimidin-5-yl)-8-azabicyclo[3.2.1]octan-8-yl)-2-hydroxyethanone]: the IC50 in test [1] (setting [3]) is > 10000 nM; in test [2] (setting [3]), 1000 to 10000 nM.
On to `CC(=O)c1c([C@@H]2C[C@H]3CC[C@@H](C2)N3C(=O)c2nnc[nH]2)nc2c(-c3ccc(-c4ccc5nc[nH]c5c4)nc3)cnn2c1N` [Compound 1.1.71, 1-(3-(6-(1H-benzo[d]imidazol-6-yl)pyridin-3-yl)-5-((1R,3s,5S)-8-(4H-1,2,4-triazole-3-carbonyl)-8-azabicyclo[3.2.1]octan-3-yl)-7-aminopyrazolo[1,5-a]pyrimidin-6-yl)ethanone], for which the IC50 in test [1] (setting [4]) and in test [2] (setting [4]) was 100 to 1000 nM in each case.
For the compound `CS(=O)(=O)c1c([C@@H]2C[C@H]3CC[C@@H](C2)N3C(=O)c2cc(N)n[nH]2)nc2c(-c3ccc(-c4ccccc4F)nc3)cnn2c1N` [Compound 3.134], the IC50 in test [1] (Table 3-1, PC3 cells) lay in the range of 1 to 100 nM; in test [2] (Table 3-1, PC3 cells) it was 1 to 100 nM.
As to `CS(=O)(=O)c1c([C@@H]2C[C@H]3CC[C@@H](C2)N3C(=O)c2cc(C(F)(F)F)n[nH]2)nc2c(-c3ccc(-c4ccccc4)nc3)cnn2c1N` [Compound 3.73, ((1R,3s,5S)-3-(7-amino-6-(methylsulfonyl)-3-(6-phenylpyridin-3-yl)pyrazolo[1,5-a]pyrimidin-5-yl)-8-azabicyclo[3.2.1]octan-8-yl)(3-(trifluoromethyl)-1H-pyrazol-5-yl)methanone], the results for the IC50 in test [1] (setting [3]) and in test [2] (setting [3]) were > 10000 nM and 1000 to 10000 nM, respectively.
For `CC(=O)c1c([C@@H]2C[C@H]3CC[C@@H](C2)N3C(=O)CO)nc2c(-c3ccc(-c4c(F)cccc4F)nc3)cnn2c1N` [Compound 1.1.171, 1-((1R,3s,5S)-3-(6-acetyl-7-amino-3-(6-(2,6-difluorophenyl)pyridin-3-yl)pyrazolo[1,5-a]pyrimidin-5-yl)-8-azabicyclo[3.2.1]octan-8-yl)-2-hydroxyethanone], the IC50 in test [1] (setting [4]) and in test [2] (setting [4]) was 1 to 100 nM in each case.
As for `CS(=O)(=O)c1c([C@@H]2C[C@H]3CC[C@@H](C2)N3C(=O)[C@H]2COC(=O)N2)nc2c(-c3ccc(-c4ccccc4)nc3)cnn2c1N` [Compound 3.142, (R)-4-((1R,3S,5S)-3-(7-amino-6-(methylsulfonyl)-3-(6-phenylpyridin-3-yl)pyrazolo[1,5-a]pyrimidin-5-yl)-8-azabicyclo[3.2.1]octane-8-carbonyl)oxazolidin-2-one], the IC50 in test [1] (setting [3]) and in test [2] (setting [3]) was 100 to 1000 nM in each case.
Regarding `CS(=O)(=O)c1c([C@@H]2C[C@H]3CC[C@@H](C2)N3C(=O)c2nnc[nH]2)nc2c(-c3ccc(-c4ccc5c(c4)OC(F)(F)O5)nc3)cnn2c1N` [Compound 3.53, ((1R,3s,5S)-3-(7-amino-3-(6-(2,2-difluorobenzo[d][1,3]dioxol-5-yl)pyridin-3-yl)-6-(methylsulfonyl)pyrazolo[1,5-a]pyrimidin-5-yl)-8-azabicyclo[3.2.1]octan-8-yl)(4H-1,2,4-triazol-3-yl)methanone], the IC50 in test [1] (setting [3]) lay in the range of 1000 to 10000 nM; in test [2] (setting [3]), 100 to 1000 nM.
For `Cc1cnc(-c2ccc(-c3cnn4c(N)c(S(C)(=O)=O)c([C@@H]5C[C@H]6CC[C@@H](C5)N6C(=O)C5(O)CC5)nc34)cn2)s1` [Compound 3.186, ((1R,3s,5S)-3-(7-amino-6-(methylsulfonyl)-3-(6-(5-methylthiazol-2-yl)pyridin-3-yl)pyrazolo[1,5-a]pyrimidin5-yl)-8-azabicyclo[3.2.1]octan-8-yl)(1-hydroxycyclopropyl)methanone], the IC50 in test [1] (setting [3]) and in test [2] (setting [3]) was 1000 to 10000 nM each time.
Take `CC(=O)c1c([C@@H]2C[C@H]3CC[C@@H](C2)N3C(=O)c2nnc[nH]2)nc2c(-c3ccc([C@@H](C)O)nc3)cnn2c1N` [Compound 7.33, 1-(5-((1R,3s,5S)-8-(4H-1,2,4-triazole-3-carbonyl)-8-azabicyclo[3.2.1]octan-3-yl)-7-amino-3-(6-((R)-1-hydroxyethyl)pyridin-3-yl)pyrazolo[1,5-a]pyrimidin-6-yl)ethanone]: the IC50 in test [1] (setting [5]) and in test [2] (setting [5]) was 100 to 1000 nM throughout.
Turning to `CC(=O)c1c([C@@H]2C[C@H]3CC[C@@H](C2)N3C(=O)c2nnc(C)[nH]2)nc2c(-c3ccc(-c4ccccc4F)nc3)cnn2c1N` [Compound 1.1.173, 1-(7-amino-3-(6-(2-fluorophenyl)pyridin-3-yl)-5-((1R,3s,5S)-8-(5-methyl-4H-1,2,4-triazole-3-carbonyl)-8-azabicyclo[3.2.1]octan-3-yl)pyrazolo[1,5-a]pyrimidin-6-yl)ethanone], the IC50 in test [1] (setting [4]) and in test [2] (setting [4]) was 1 to 100 nM in each case.
